{"source": "patent US20140088114A1", "about": "“FUSED BICYCLIC KINASE INHIBITORS” (OSI Pharmaceuticals ,LLC, priority 2011, published 2014)"}
{"target": "T1, c-MET (Homo sapiens, UniProt P08581)", "T1 construct": "endogenous in cells; host or cells: MKN45", "T1 sequence (P08581 25-1390)": "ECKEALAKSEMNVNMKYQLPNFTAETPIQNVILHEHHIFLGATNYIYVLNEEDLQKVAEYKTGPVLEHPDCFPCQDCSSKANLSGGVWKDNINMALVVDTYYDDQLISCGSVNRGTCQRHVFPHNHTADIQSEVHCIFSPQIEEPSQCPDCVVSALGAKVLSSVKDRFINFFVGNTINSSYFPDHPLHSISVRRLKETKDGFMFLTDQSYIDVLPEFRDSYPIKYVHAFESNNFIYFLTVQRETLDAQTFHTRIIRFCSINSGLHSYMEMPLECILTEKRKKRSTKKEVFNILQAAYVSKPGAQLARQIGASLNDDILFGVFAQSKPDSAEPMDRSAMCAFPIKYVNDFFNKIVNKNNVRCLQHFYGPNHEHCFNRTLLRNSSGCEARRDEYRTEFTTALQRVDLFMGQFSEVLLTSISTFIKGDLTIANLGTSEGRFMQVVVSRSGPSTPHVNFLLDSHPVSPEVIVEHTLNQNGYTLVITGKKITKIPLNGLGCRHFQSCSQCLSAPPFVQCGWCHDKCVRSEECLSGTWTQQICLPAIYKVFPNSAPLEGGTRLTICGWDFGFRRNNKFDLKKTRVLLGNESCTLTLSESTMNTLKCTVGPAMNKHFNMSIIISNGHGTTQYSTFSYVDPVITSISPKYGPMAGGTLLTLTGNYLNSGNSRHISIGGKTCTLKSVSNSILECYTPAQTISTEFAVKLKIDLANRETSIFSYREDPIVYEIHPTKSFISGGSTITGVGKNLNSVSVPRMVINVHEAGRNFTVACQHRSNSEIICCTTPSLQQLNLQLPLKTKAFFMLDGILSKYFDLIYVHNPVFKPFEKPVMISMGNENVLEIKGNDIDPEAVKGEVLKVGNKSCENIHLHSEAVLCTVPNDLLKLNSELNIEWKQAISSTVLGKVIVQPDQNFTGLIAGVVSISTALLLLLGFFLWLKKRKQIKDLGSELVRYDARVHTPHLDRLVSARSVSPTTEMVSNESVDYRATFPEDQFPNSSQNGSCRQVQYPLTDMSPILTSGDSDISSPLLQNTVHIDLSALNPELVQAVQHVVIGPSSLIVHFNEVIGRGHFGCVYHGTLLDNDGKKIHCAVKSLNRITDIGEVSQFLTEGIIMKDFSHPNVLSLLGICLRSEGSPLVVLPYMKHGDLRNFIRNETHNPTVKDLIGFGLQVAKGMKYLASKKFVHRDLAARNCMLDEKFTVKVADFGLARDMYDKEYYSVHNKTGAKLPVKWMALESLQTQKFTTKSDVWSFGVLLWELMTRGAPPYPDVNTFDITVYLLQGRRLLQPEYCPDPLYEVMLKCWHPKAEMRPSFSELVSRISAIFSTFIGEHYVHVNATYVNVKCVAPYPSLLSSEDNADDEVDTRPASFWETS", "assay": "MET cell mechanistic assay (MKN45), phosphorylated MET ELISA", "type": "cell-based", "details": "MKN45 cell line, 4 hours incubation, inhibition of phosphorylated MET, at least duplicate experiments; read-out: MET mech IC50", "protocol": "The cellular activity of the compounds of the present invention against c-MET may be determined by the following procedure. MKN45 cells were plated in Falcon 3072 96-well plates in growth media (RPMI, 10% FBS, 1% L-glutamine) at a density of 5000 cells/well and incubated at 37° C., 5% CO2 overnight. The following day, one-tenth volume of a 10× concentration of compounds was added to the wells in a 6-point dilution series. The dilutions series was composed of an initial 1:5 dilution in DMSO, followed by a 1:10 dilution in growth media, for a final DMSO concentration on cells of 0.5%. Control wells were treated with 0.5% DMSO. The typical range of dilution was 10 μM to 3 nM. Once compound was added to the cells, plates were incubated for 4 hours at 37° C., 5% CO2. Plates were then washed in PBS, and lysed in triton-based lysis buffer. Lysates were transferred to a precoated capture plate made by Biosource (Cat #KHO0281). The phosphorylated MET levels were measured by incubating with a rabbit polyclonal antibody against phosphorylated MET ([pYpYpY1230/1234/1235]) followed by an anti-rabbit antibody conjugated to HRP. Signal was measured on a Wallac Victor plate reader at 450 nm. The DMSO signal of the control wells was defined as 100% and the percent of inhibition of phosphorylated MET was expressed as percent of control. IC50 values were determined from the percent of control data using a standard four-parameter model.\nThe IC50 values of exemplary compounds of the present invention determined in a MET cell mechanistic assay using the MKN45 cell line according to the procedures described herein in at least duplicate experiments are abbreviated as follows and are shown in Table 1: A, IC50≦0.03 μM; B, 0.03 μM<IC50≦0.1 μM; C, 0.1 μM<IC50≦1 μM; D, 1 μM<IC50≦3 μM; ND, not determined. The Example # of Table 1 corresponds to the compound Example number as illustrated in the Examples section. […]", "units": {"IC50": "nM"}}
{"smiles": "COc1ccc(F)c(Cl)c1[C@@H](CF)c1c[nH]c2ncc(-c3cnn([C@H]4CC[C@H](O)CC4)c3)cc12", "note": "[Example 3, trans-4-(4-{3-[(1S)-1-(2-chloro-3-fluoro-6-methoxyphenyl)-2-fluoroethyl]-1H-pyrrolo[2,3-b]pyridin-5-yl}-1H-pyrazol-1-yl)cyclohexanol]", "IC50": "≤ 30"}
{"smiles": "O[C@H]1CC[C@H](n2cc(-c3cnc4[nH]cc([C@H](CF)c5c(OC(F)F)ccc(F)c5Cl)c4c3)cn2)CC1", "note": "[Example 5, trans-4-[4-(3-{(1S)-1-[2-Chloro-6-(difluoromethoxy)-3-fluorophenyl]-2-fluoroethyl}-1H-pyrrolo[2,3-b]pyridin-5-yl)-1H-pyrazol-1-yl]cyclohexanol]", "IC50": "≤ 30"}
{"smiles": "O[C@H]1CC[C@H](n2cc(-c3cnc4[nH]cc([C@@H](CF)c5c(OC(F)F)ccc(F)c5Cl)c4c3)cn2)CC1", "note": "[Example 4, trans-4-[4-(3-{(1R)-1-[2-Chloro-6-(difluoromethoxy)-3-fluorophenyl]-2-fluoroethyl}-1H-pyrrolo[2,3-b]pyridin-5-yl)-1H-pyrazol-1-yl]cyclohexanol]", "IC50": "100 to 1000"}
